# Where two headings read alike, the source gives them in different places.
# Assays:
# corneal neovasculature = format: in vivo, New Zealand albino rabbit
# Excerpt: The corneal and limbal epithelia, along with the conjunctival epithelium 2-3 mm beyond the limbus, were removed from New Zealand albino rabbits by a combination of surgical scraping and n-heptanol debridement. The denuded corneal surfaces were then healed by the remaining conjunctival epithelium, of which 65% contained extensive neovascularization. From this group, 16 corneas with neovascularization persistent for about 20 months were subjected to photothrombotic treatment.
# Isotonic saline solution was used as a control solution.
# After anesthesia with intramuscular injection of xylazine (10 mg/kg bw) and ketamine (10 mg/kg bw), the rabbits were injected intravenously with either 2.5 ml of isotonic saline solution or rose bengal saline solution at a dosage of 40 mg/kg bw. Irradiation of corneal vessels was carried out with an argon ion laser (Model 95, Cooper LaserSonics, Fremont, Calif.) operated at 514.5 nm, as described by Mendelsohn et al. (Arch. Opthalmol., 105:983-988, 1987). The beam focusing apparatus was mounted in an X-Y positioning device attached to a rotary turntable, both with micrometer precision (Daedal, Inc., Harrison City, Pa.). With this apparatus, beam positioning stability and reproducibility of incident intensity were improved because irradiations were administered during the open cycle of the mechanical shutter. The incident power level was set at 200 mW; allowing for reflection losses in the fiber optic focusing system, the incident power was reduced to 130 mW. At the focal point, the laser beam was 63 μm in diameter. Each irradiation was 0.2 second in pulse duration. During the entire procedure, the corneas were continuously rinsed with a balanced salt solution delivered through a peristatic pump and the temperature of the solution was maintained at 37° C. with a water bath. After laser irradiation, topical antibiotics and steroids were applied for two days.
# Routine external photography and corneal fluorescein angiography were performed to document occlusion of the corneal blood vessels and the duration of their occlusion. Angiograms were taken with a ceiling-mounted Zeiss surgical photoscope after injection of 1 ml of 10 mg/ml fluorescein solution. Baseline angiography was performed two or three days before laser irradiation to avoid possible photosensitizing effects from the fluorescein dye used for angiography. After photothrombotic treatment, angiograms were taken on scheduled dates in order to monitor the duration of the occlusive effect. Late phase (5 minutes after injection) fluorescein angiograms were used for comparison.
# Various dosages of rose bengal solution were used to investigate the efficacy of photothrombosis.
# common carotid artery = assay: Argon laser photothrombotic occlusion of common carotid artery (Example 1); format: in vivo, rat (male Wistar); settings: 514.5 nm argon laser
# Excerpt: Male Wistar rats, each weighing 280 to 330 gm, were anesthetized with 1.5% halothane and maintained on a 70:30 mixture of nitrous oxide and oxygen delivered by a closely fitting Mylar face mask (Watson et al., J. Neurosurg., 66:748-754, 1987, the disclosure of which is hereby incorporated by reference and relied upon). After separation of the temporal musculature, the middle cerebral artery was exposed via a small subtemporal craniectomy produced by a high-speed drill under an operating microscope; the dura was left intact. The common carotid arteries were exposed bilaterally by a midline incision extending from the mental process to the sternal notch; the sternocleidomastoid muscle was then retracted laterally to expose the underlying artery. Bleeding from the operative site was controlled with pressure and Gelfoam. The animal was then prepared for irradiation by filling the surgical cavity with saline, just submerging the exposed blood vessel. The saline solution was kept clear by frequent suction and irrigation. The femoral arteries were exposed by bilateral inguinal incisions and were prepared for irradiation in a fashion similar to that described above.
# As assessed by observation of rose bengal fluorescence, thrombus development in the common carotid or femoral arteries followed a course similar to that observed in the middle cerebral artery, except that the thrombus appeared as a […] as viewed through the blood vessel wall. Intense scattering of the incident laser light was also noted at about the time that arterial pulsations at the level of irradiation ceased.
# Ultrastructural studies were carried out at either 30 minutes or 7 days following irradiation. Animals were perfused transcardially with 0.9% sodium chloride solution followed by 2% paraformaldehyde and 2.5% glutaraldehyde in a 0.1 M sodium phosphate buffer. Perfusion pressure was monitored throughout the procedure and was maintained at 100 mm Hg. After perfusion fixation, the femoral and common carotid arteries were isolated and placed in fixative for an additional 2 hours. […]
# [1] = rabbit, in vivo; cited from earlier work
# rabbit ocular mucin = assay: Immunofluorescence of mucin expression with anti-ROM antibody; format: in vivo
# Protocol: The epithelial phenotype of the control and treated corneas was then studied by impression cytology (Tseng, Ophthalmology, 92:728-33, 1985) and routine histology using hematoxylin and PAS. In addition, immunofluorescent stainings of the frozen sections using a previously developed anti-rabbit ocular mucin monoclonal antibody [anti-ROM] was performed to study mucin expression.
# To further confirm the transition of epithelial differentiation, a monoclonal antibody against rabbit ocular mucin [anti-ROM] was used to examine the expression of mucin, the major product of goblet cells.
# [2] = common carotid and femoral arteries
# Excerpt for arteries: The method utilizes an intravascular photochemical reaction to induce structural damage to normally non-thrombogenic vascular endothelium. The photochemical process is mediated by rose bengal, a potent photosensitizing dye injected into the bloodstream. Absorption by the injected rose bengal dye of light at a wavelength sufficient to electronically excite the rose bengal molecules induces photochemical injury via singlet oxygen peroxidation reactions in the vascular endothelium at the point of interaction of the rose bengal and the light beam, which is preferably a laser light beam.
# A tunable argon ion laser (a Lexel Model 95 argon ion laser, manufactured by Cooper LaserSonics, Santa Clara, Calif.), operated at 514.5 nm, was used for the irradiation. The argon ion laser was focused according to a derived criterion (described below) to facilitate maximally efficient intraluminal growth of the occlusive thrombus. The middle cerebral artery was irradiated with 7.5 mW delivered either continuously or via a beam-chopper operated at 200 Hz (with 75 mW peak power, 10% duty cycle). The carotid and femoral arteries were each irradiated with a chopped beam at 1 W average power (2 W peak power chopped at 200 Hz and 50% duty cycle). […] The middle cerebral artery (diameter approximately 200 μm) was irradiated through a spherical lens of 39-cm focal length at a distance of 40 cm from the artery; with correction for optical reflection losses, the incident intensity was 16 W/sq cm. The femoral artery (diameter 670 μm) and common carotid artery (diameter 800 μm) were irradiated through a spherical lens of 61-cm focal length at distances of 42 and 26 cm from the artery, respectively. In each case, the average incident intensity, with correction for irradiation geometry, was approximately 160 W/sq cm.
# A stock solution of rose bengal dye, 30 mg/ml in 0.9% saline, was made up for intravenous injection (via the tail vein) at a dose of 40 mg/kg. Before dye injection, the contralateral (control) arteries were irradiated for 15 minutes at the stated intensities. Following this, simultaneous intravenous infusion of the rose bengal solution (at 20 mg/kg/min over 2 minutes) and irradiation of the ipsilateral artery was begun. Five rats were used for common carotid artery irradiation and four for femoral artery irradiation. In the latter case, two rats received only 20 mg/kg. Middle cerebral artery irradiation was performed in a large series of approximately 70 animals.
# Protocol for middle cerebral artery: In order to conduct irradiation of the rat middle cerebral artery at normal blood pressure, oral intubation was performed and mechanical ventilation was initiated after paralysis with pancuronium bromide. The rat was then placed on a tiltable stereotaxic frame, and the middle cerebral artery was exposed through a subtemporal approach. The right temporalis musculature was reflected anteriorally, and a 2×2 mm subtemporal craniotomy was carried out with the aid of a high-speed drill under a dissecting microscope, leaving the middle cerebral artery exposed and the dura intact at the level of the olfactory tract. Rose bengal dye (2 mg in 0.133 ml saline per 100 g animal weight) was administered intravenously, resulting in a blood concentration of 340 μM.
# The right middle cerebral artery, at a point just distal to the olfactory branches, was irradiated with the beam of a tunable argon ion laser (Lexel Model 95, Cooper LaserSonics, Santa Clara, CA), operated at 514.5 nm in the continuous mode at a power level of 50 mW. The beam was focused longitudinally onto the middle cerebral artery with two cylindrical lenses, both of 30 cm focal length. […] During irradiation, the irradiated segment appeared orange, owing to rose bengal fluorescence in the flowing blood stream. […]
smiles,measurement,setting,value
O=C([O-])c1c(Cl)c(Cl)c(Cl)c(Cl)c1-c1c2cc(I)c(=O)c(I)c-2oc2c(I)c([O-])c(I)cc12.[Na+].[Na+] [rose bengal],Total Laser Shots to Occlude each Vessel,"corneal neovasculature; 4 mg/kg BW i.v., duration 0-10 min, means ± s.d.",33 ± 8
same,Total Laser Shots to Occlude each Vessel,"corneal neovasculature; 4 mg/kg BW i.v., duration 10-20 min, means ± s.d.",53 ± 8
same,Total Laser Shots to Occlude each Vessel,"corneal neovasculature; 4 mg/kg BW i.v., duration 20-30 min, means ± s.d.",81 ± 11
same,Total Laser Shots to Occlude each Vessel,"corneal neovasculature; 4 mg/kg BW i.v., duration 30-40 min",> 100
same,Total Laser Shots to Occlude each Vessel,"corneal neovasculature; 4 mg/kg BW i.v., duration 40-50 min",N.O.
same,Total Laser Shots to Occlude each Vessel,"corneal neovasculature; 4 mg/kg BW i.v., duration 50-60 min",N.O.
same,shots required to occlude blood vessels,corneal neovasculature; 4 mg/kg bw,more than 100 shots
same,time window in which vessels could still be occluded,"corneal neovasculature; 4 mg/kg bw, sufficient shots",≤ 30 min
same,Total Laser Shots to Occlude each Vessel,"corneal neovasculature; 8 mg/kg BW i.v., duration 0-10 min, means ± s.d.",13 ± 4
same,Total Laser Shots to Occlude each Vessel,"corneal neovasculature; 8 mg/kg BW i.v., duration 10-20 min, means ± s.d.",19 ± 1
same,Total Laser Shots to Occlude each Vessel,"corneal neovasculature; 8 mg/kg BW i.v., duration 20-30 min, means ± s.d.",30 ± 4
same,Total Laser Shots to Occlude each Vessel,"corneal neovasculature; 8 mg/kg BW i.v., duration 30-40 min, means ± s.d.",51 ± 7
same,Total Laser Shots to Occlude each Vessel,"corneal neovasculature; 8 mg/kg BW i.v., duration 40-50 min, means ± s.d.",65 ± 6
same,Total Laser Shots to Occlude each Vessel,"corneal neovasculature; 8 mg/kg BW i.v., duration 50-60 min, means ± s.d.",85 ± 10
same,shots per target vessel required for occlusion,corneal neovasculature; 8 mg/kg bw or higher,< 20 shots
same,Total Laser Shots to Occlude each Vessel,"corneal neovasculature; 16 mg/kg BW i.v., duration 0-10 min, means ± s.d.",8 ± 3
same,Total Laser Shots to Occlude each Vessel,"corneal neovasculature; 16 mg/kg BW i.v., duration 10-20 min, means ± s.d.",9 ± 2
same,Total Laser Shots to Occlude each Vessel,"corneal neovasculature; 16 mg/kg BW i.v., duration 20-30 min, means ± s.d.",10 ± 2
same,Total Laser Shots to Occlude each Vessel,"corneal neovasculature; 16 mg/kg BW i.v., duration 30-40 min, means ± s.d.",13 ± 3
same,Total Laser Shots to Occlude each Vessel,"corneal neovasculature; 16 mg/kg BW i.v., duration 40-50 min, means ± s.d.",20 ± 4
same,Total Laser Shots to Occlude each Vessel,"corneal neovasculature; 16 mg/kg BW i.v., duration 50-60 min, means ± s.d.",32 ± 5
same,Total Laser Shots to Occlude each Vessel,"corneal neovasculature; 40 mg/kg BW i.v., duration 0-10 min, means ± s.d.",5 ± 1
same,Total Laser Shots to Occlude each Vessel,"corneal neovasculature; 40 mg/kg BW i.v., duration 10-20 min, means ± s.d.",5 ± 1
same,Total Laser Shots to Occlude each Vessel,"corneal neovasculature; 40 mg/kg BW i.v., duration 20-30 min, means ± s.d.",6 ± 1
same,Total Laser Shots to Occlude each Vessel,"corneal neovasculature; 40 mg/kg BW i.v., duration 30-40 min, means ± s.d.",8 ± 2
same,Total Laser Shots to Occlude each Vessel,"corneal neovasculature; 40 mg/kg BW i.v., duration 40-50 min, means ± s.d.",10 ± 3
same,Total Laser Shots to Occlude each Vessel,"corneal neovasculature; 40 mg/kg BW i.v., duration 50-60 min, means ± s.d.",15 ± 4
same,corneal fluorescein angiography,corneal neovasculature; after photothrombosis,completely occluded without any dye leakage
same,recanalization / new vessel formation,corneal neovasculature; four-month study period,without recanalization or stimulation of new vessel formation elsewhere
same,involution of occluded corneal vessels,corneal neovasculature; one week after irradiation,gradually involuted
same,conjunctival side effect,"corneal neovasculature; rabbit, in vivo, 40 mg/kg",edematous and slightly pinkish in color
same,irradiation time,"middle cerebral artery; 2 mg per 100 g i.v., 50 mW, 514.5 nm",~5 min
same,occluded segment length,"middle cerebral artery; rat, in vivo",approximately 1 mm
same,time to occlusion,"arteries; 35 kJ/sq cm large arteries, 3.5 kJ/sq cm small arteries",≤ 3 min
same,distal extension of mixture of red blood cells and coagulum,arteries; [2],at least 10 arterial diameters
same,thrombus composition,arteries; [2],thrombus of mixed character
same,photochemically induced thrombotic occlusion,arteries; irradiated arteries of rats injected with rose bengal solution,always observed
same,"complete occlusion, irradiation time",common carotid artery; 40 mg/kg i.v.,≤ 3 min
same,energy fluence at occlusion,common carotid artery,about 35 kJ/sq cm
same,total energy deposited at occlusion,common carotid artery,140 to 180 joules (J)
same,half-life in blood,[1],three
same,mucin in epithelium of occluded corneas,rabbit ocular mucin; four weeks,complete absence
same,expression of mucin antigen,rabbit ocular mucin; with time after vessel occlusion,diminish gradually with time

# Reference: patent publication US5053006A, “Method for the permanent occlusion of arteries” (priority 1990, dated 1991)
